Source: patent publication US4826984A, “Heteroarotinoid compounds as anticancer agents” (The Board of Regents for the Oklahoma Agricultural and …, priority 1987, dated 1989)
“And” between values parts separate entries of the source, which are not always exact repeats. Equal values may be shown once. “Also recorded” adds a separate entry of the source. Read-outs that look alike come from different tables or passages of the source.

How the values were obtained:
[1] = tested on: tracheal organ cultures obtained from vitamin A deficient hamsters; assay: tissue or blood; format: cell-based, hamster; conditions: for EC50: Mesocricetus auratus, dose for reversal of keratinization in epithelium of 50% of retinoid-deficient hamster tracheas in organ culture, trans-retinoic acid run with each compound, read-out: ED50 (the source's name); for activity relative to all trans-retinoic acid: log units less than the standard; for activity (in words): reversal of keratinization
From the text: An evaluation of the anticancer properties of the heteroarotinoids was made via the standard hamster tracheal organ culture bioassay (see D. L. Newton, W. R. Henderson, and M. B. Sporn in Structure-Activity Relationships of Retinoids, National Cancer Institute, Revised Edition, Feb. 26, 1980; and D. L. Newton, W. R. Henderson, and M. B. Sporn, Cancer Research, 40, 3413 [1980]). The assay involves the ability of a test compound in vitro to reverse keratinization in tracheal organ cultures obtained from vitamin A deficient hamsters. The relationship of vitamin A deficient epithelial tissues and precancerous lesions is well known (see C. E. Orfanos, Retinoids-Advances in Basic Research and Therapy, Springer-Verlag, New York, 1981). For example, the addition of retinoids can reverse the anaplastic epithelial lesions induced in prostate glands by chemical carcinogens (see D. P. Chopra and L. J. Wilkoff, Proc. Am Assoc. Cancer Research, 16, 35 (1975); and I. Lasnitzki, British Journal of Cancer, 9, 434 [1955]). The basic procedure for the bioassay involving the vitamin A deficient hamster tracheal organ culture is presented below with the results obtained for some of the compositions.
The harvested tracheas were cultured in a serum-free medium and were gassed with 50% O2, 45% N2, and 5% CO2. The serum-free culture consists of CMRL Medium 1066 with crystalline bovine insulin (1.0 μg/mL), hydrocortisone hemisuccinate (0.1 μg/mL), glutamine (2 mM), pencillin (100 inits/mL), and streptomycin (100 μg/mL). The cultures were incubated for 3 days at 35°-36° C. After incubation in the retinoid-free medium, some of the tracheas were harvested. Most of the specimens had significant squamous metaplasia. The remaining cultures were divided into 3 groups. The first group was treated with the experimental heteroarotinoid in spectrograde dimethyl sulfoxide (DMSO) at concentrations of 10^-8 M, 10^-9 M, and 10^-10 M (final concentration of DMSO in culture medium was 0.1%). […] A final culture was prepared with only DMSO present.
The culture medium was changed three times per week for 10 days. At the end of that time, all tracheas were harvested and fixed in a 4% (or sometimes 10%) formaldehyde-1% glutaraldehyde solution. The material was then embedded in paraffin and cross-sections of the tracheas were examined under a microscope for the presence of keratin or keratohyaline granules. A synthetic retinoid was judged as having good anticancer activity if neither keratin nor keratohyaline granules were present or if only keratohyaline granules were […]. […] Sloughing of the cells in the culture studies was common with the toxic all trans-retinotic acid but was not observed with the heteroarotinoids in this work.
^a ED50 (M) is the dose for reversal of keratinization in
epithelium of 50% of retinoiddeficient hamster tracheas in organ culture.

[2] = tested on: HL-60 cells; assay: induction of differentiation of HL-60 cells (NBT reduction); format: cell-based, human; conditions: for cells induced to differentiate: 3 μM; for EC50: Homo sapiens
Experimental: In order to evaluate the efficacy of the heteroarotinoids to induce HL-60 cell differentiation along the granulocytic maturation pathway, HL-60 cells were grown in a serum-free medium consisting of HRPMI 1640 supplemented with […] 4-(2-hydroxyethyl)-1-piperazineethane sulfonic acid, 5 μg of insulin/mL, and 5 μg of transferrin/mL. These mature cells, unlike the uninduced HL-60, produced superoxide anion when simulated with an appropriate agent, such as TPA. The ability of the individual cells to produce superoxide can be measured by incubating cells with the water-soluble yellow dye, nitroblue tetrazolium (NBT). NBT is reduced to a water-insoluble blue-black formazan by superoxide. This formazan precipitate is associated with those cells that produce superoxide. Thus, the percentage of cells in a population that produce superoxide (NBT-positive cells) can be enumerated under a light microscope.
After incubation for 4 days at 37° C. in a humidified atmosphere of 5% CO2 and air, the capacity of the cells to reduce NBT was determined. Viable cells (10^6) were harvested by centrifugation and suspended in 0.5 mL of RPMI 1640 containing 20% fetal bovine serum. This cell suspension was mixed with an equal volume of phosphate buffered saline containing 1 mg of NBT/mL and […]. The reaction mixture was incubated at 37° C. for 25 minutes, and the reaction was terminated by cooling in an ice water bath. Cytospin slides were prepared from a portion of this reaction mixture and stained with Wright-Giemsa. A minimum of 200 cells were counted under light microscopy to determine the percentage of cells with cell-associated formazan.

[3] = tested on: ornithine decarboxylase (ODC); assay: suppression of TPA induced ornithine decarboxylase (ODC) in mouse skin; format: in vivo; conditions: for activity in inhibiting ODC induction by TPA (in words): mouse, in vivo
Experimental: In the ODC assay, either 13-cis-retinoic acid or trans-retinoic acid was employed. The following Table summarizes the result of the ODC assays.
In the screening tests of the Table, the selected retinoids in 0.2 ml of acetone were applied 1 hour before the application of 10 nmole of TPA to the shaved backs of mice; the mice where then sacrificed for ODC assay 5 hours after TPA treatment. Epidermus was separated, homogenized, and centrifuged at 30,000×g. Soluble epidermal ODC activity was assayed. The retinoids were evaluated in three independent experiments (3 groups of mice with 3 mice per group) and the results from the experiments were normalized (% inhibition) for comparison. […] Which standard is used appears to be relatively unimportant for determining activity in the assay, but the data presented in the Table identifies the standard for sake of clarity and accuracy of presentation. Thus, the presence of the heteroatom in these arotinoids has not eliminated biological activity. […] Consequently, the nature of the terminus group is also important.

[4] = single large doses; cited from earlier work
[5] = tested on: tracheal organ cultures obtained from vitamin A deficient hamsters; conditions: value stated for the standard in the method; read-out: ED50 (the source's name); cited from earlier work
[6] = HL-60, 96 h, 4 days at 37° C., read-out: ED50 (half-maximal response)
[7] = 34 nmol retinoid + TPA, third experiment (standard trans-retinoic acid)
[8] = trans-retinoic acid as a standard
[9] = 34 nmol retinoid + TPA, second experiment (standard 13-cis-retinoic acid)
[10] = 13-cis-retinoic acid as the standard
[11] = 17 nmol retinoid + TPA, first experiment
[12] = 17 nmol retinoid + TPA, second experiment

In the case of CCOC(=O)c1ccc(/C=C(\C)c2ccc3c(c2)C(C)(C)CCO3)cc1 [(X = O, R = C2 H5), Ethyl (E)-4-[2-(3,4-Dihydro-4,4-dimethyl-2H-1-benzopyran-6-yl)-1-propenyl]benzoate], the “% Active” value ([1]; 10^-9 M) is reported as 100%, the “% Active” value ([1]; 10^-10 M) is reported as 50.0% and the “% Active” value ([1]; 10^-11 M) is reported as 28.2%. The EC50 [1] was 0.1 nM, the “activity relative to all trans-retinoic acid” value [1] was “only one log unit less than the standard all trans-retinoic acid” and the “activity (in words)” value [1] was “good activity”.
For C/C(=C\c1ccc(C(=O)O)cc1)c1ccc2c(c1)C(C)(C)CCO2 [acid derived from 34], the “cells induced to differentiate” value [2] was “approximately 15%”, the EC50 [2, 6] was greater than 3000 nM and the EC50 ([2]; HL-60, restated in discussion, read-out: ED50 (the source's name)) was less than 3000 nM.
With COC(=O)c1ccc(/C=C(/C)c2ccc3c(c2)C(C)(C)CO3)cc1 [compound 25] the “cells induced to differentiate” value [2] was 3 to 5%.
For C/C(=C\c1ccc(C=O)cc1)c1ccc2c(c1)C(C)(C)CCO2 [compound 36], the “% of Inhibition as Compared to Control” value [3, 7] was 34%, the “ODC Activity” value [3, 7] was 3.5 ± 0.2 nmol CO2 /60 min/mg protein and the “activity in inhibiting ODC induction by TPA (in words)” value (“activity in inhibiting ODC induction” for short) [3] was “less active”. The “relative activities in suppressing TPA induction of ODC” value (from here on “relative activities”) [3, 8] was “trans-retinoic acid >24>35>36”.
In the case of C/C(=C\c1ccc(CO)cc1)c1ccc2c(c1)C(C)(C)CCO2 [compound 35, (E)-4-[2-Methyl-2-(4,4-dimethyl-6-chromanyl)]benzyl Alcohol], the “% of Inhibition as Compared to Control” value [3, 7] is reported as 68%, the “ODC Activity” value [3, 7] is reported as 1.7 ± 0.1 nmol CO2 /60 min/mg protein and the “activity in inhibiting ODC induction” value [3] is reported as “less active”. For the same molecule, the “relative activities” value [3, 8] was “trans-retinoic acid >24>35>36” and the EC50 [2, 6] was greater than 3000 nM.
For C/C(=C\c1ccc(C#N)cc1)c1ccc2c(c1)C(C)(C)CCO2 [compound 34], the “ODC Activity” value [3, 9] was 1.77 ± 0.32 nmol CO2 /60 min/mg protein and the “relative activities” value [3, 10] was 13-cis-retinoic acid 31>34.
In the case of CCOC(=O)c1ccc(/C=C(\C)c2ccc3c(c2)C(C)(C)CC[S+]3[O-])cc1 (centres unmarked) [(X = S)--O, R = C2 H5), Ethyl (E)-4-[2-(3,4-Dihydro-4,4-dimethyl-2H-1-benzothiopyran-1-oxo-6-yl)-1-propenyl]benzoate], the “% Active” value ([1]; 10^-8 M) is reported as 71.4%, the “% Active” value ([1]; 10^-9 M) is reported as 71.4% and the “% Active” value ([1]; 10^-10 M) is reported as 18.6%. For the same molecule, the EC50 [1] was 0.6 nM and the “activity (in words)” value [1] was “less active but nevertheless displayed activity within the range of the standard”.
With CCOC(=O)c1ccc(/C=C(\C)c2ccc3c(c2)C(C)(C)CCS3)cc1 [1 (X = S, R = C2 H5), Ethyl (E)-4-[2-(3,4-dihydro-4,4-dimethyl-2H-1-benzothiopyran-6-yl)-1-propenyl]benzoate] the “% Active” value ([1]; 10^-9 M) was 100%, the “% Active” value ([1]; 10^-10 M) was 53.8% and the “% Active” value ([1]; 10^-11 M) was 28.6%. The “% Active” value ([1]; 10^-12 M) was 33.7%, the EC50 [1] was 0.06 nM and the “activity relative to all trans-retinoic acid” value [1] was “approximately one-half log unit less than the all trans-retinoic acid”. The “activity (in words)” value [1] was “very good activity”.
For CC1=C(/C=C/C(C)=C/C=C/C(C)=C\C(=O)O)C(C)(C)CCC1 [13-cis-retinoic acid, reference compound], the “% of Inhibition as Compared to Control” value [3, 11] was 89%, the “ODC Activity” value [3, 11] was 0.1 ± 0.01 nmol CO2 /30 min/mg protein and the “% of Inhibition as Compared to Control” value [3, 12] was 92%. The “ODC Activity” value [3, 12] was 0.14 ± 0.04 nmol CO2 /60 min/mg protein and the “relative activities” value [3, 10] was 13-cis-retinoic acid 31>34.
In the case of C/C(=C\c1ccc(C(=O)O)cc1)c1ccc2c(c1)C(C)(C)CCO2 [(X = O, R = H), (E)-4-[2-(3,4-Dihydro-4,4-dimethyl-2H-1-benzopyran-6-yl)-1-propenyl]benzoic Acid], the “% Active” value ([1]; 10^-8 M) is reported as 100%, the “% Active” value ([1]; 10^-9 M) is reported as 100% and the “% Active” value ([1]; 10^-10 M) is reported as 57.1%. For the same molecule, the “% Active” value ([1]; 10^-11 M) was 11.14%, the EC50 [1] was 0.2 nM and the “activity relative to all trans-retinoic acid” value [1] was “only one log unit less than the standard all trans-retinoic acid”. For the same molecule, the “activity (in words)” value [1] was “good activity”.
For COC(=O)c1ccc(/C=C(\C)c2ccc3c(c2)C(C)(C)CCO3)cc1 [compound 31, Methyl (E)-4-[2-(3,4-Dihydro-4,4-dimethyl-2-H-1-benzopyran-6-yl)-1-propenyl]benzoate], the “% of Inhibition as Compared to Control” value [3, 9] was 43%, the “ODC Activity” value [3, 9] was 0.95 ± 0.06 nmol CO2 /60 min/mg protein and the “relative activities” value [3, 10] was 13-cis-retinoic acid 31>34. For the same molecule, the “activity in inhibiting ODC induction” value [3] was “less active”, the “cells induced to differentiate” value [2] was “approximately 15%” and the EC50 [2, 6] was greater than 3000 nM.
In the case of COC(=O)c1ccc(/C=C(\C)c2ccc3c(c2)C(C)(C)CO3)cc1 [compound 24, Methyl (E)-4-[2-(2,3-Dihydro-3,3-dimethyl-5-benzofuranyl)-1-propenyl]benzoate], the “% of Inhibition as Compared to Control” value [3, 7] is reported as 72%, the “ODC Activity” value [3, 7] is reported as 1.5 ± 0.4 nmol CO2 /60 min/mg protein and the “activity in inhibiting ODC induction” value [3] is reported as “strongest activity; also recorded: strong activity as compared to the control”. For the same molecule, the “relative activities” value [3, 8] was “trans-retinoic acid >24>35>36”, the “cells induced to differentiate” value [2] was 3 to 5% and the EC50 [2, 6] was greater than 3000 nM.
In the case of C/C(=C\c1ccc(C(=O)O)cc1)c1ccc2c(c1)C(C)(C)CO2 [compound 26, (E)-4-[2-(2,3-Dihydro-3,3-dimethyl-5-benzofuranyl)-1-propenyl]benzoic acid], the EC50 [2, 6] is reported as greater than 3000 nM.
In the case of CC1=C(/C=C/C(C)=C/C=C/C(C)=C/C(=O)O)C(C)(C)CCC1 [trans-retinoic acid, all trans-retinoic acid, reference compound], the acute toxicity [4] is given as “acutely toxic in single large doses”, the “Sloughing of the cells in the culture studies” value [1] is given as “common” and the “% Active” value ([1]; 10^-11 M) is given as 50.0% and 41.7% and 53.8%. The “% Active” value ([1]; 10^-12 M) was 16.7% and 33.3% and 23.1%, the “% Active” value ([1]; concentration printed 11^-11 M) was 50.0% and the “% Active” value ([1]; concentration printed 12^-12 M) was 23.1%. The “% of Inhibition as Compared to Control” value [3, 7] was 81%, the “ODC Activity” value [3, 7] was 1.0 ± 0.1 nmol CO2 /60 min/mg protein and the “relative activities” value [3, 8] was “trans-retinoic acid >24>35>36”. For the same molecule, the EC50 [5] was 0.01 nM.
